Values of other authors as cited in US11896043B2, “Intestinal immune-enhancing agent, food product, and medicament” (DAICEL CORPORATION, priority 2017, dated 2024).

System: IgA

OC[C@H]1O[C@@H](O[C@H]2[C@H](O)[C@@H](O)[C@@H](O[C@]3(CO)O[C@H](CO)[C@@H](O)[C@@H]3O)O[C@@H]2CO)[C@H](O)[C@@H](O)[C@H]1O [lactosucrose, 4^G-β-D-galactosylsucrose]
amounts of IgA in the feces and cecal contents (2% and 5% LS added feed for 4 weeks): significantly increased
amount of IgA in the feces (after two weeks): decreased greatly
amount of IgA in the feces relative to the control group (one week after ingestion): about twice
